Experimental data as given in publication PMC13462928 (Nature Communications, 2026).

What follows are molecules tested against NUDT5 and the respective E3 ligase (Homo sapiens, UniProt P40337+Q9UKK9) (assay: NanoBRET ternary complex formation assay NUDT5 and the respective E3 ligase (VHL or CRBN) in HEK293 cells). Conditions: HEK293, 4 h, Supplementary Table 2.
Assay type: cell-based
Description: NanoBRET ternary complex assays were performed following the manufacturer’s instructions (Promega). […] After 4 h or 20 h of incubation, a mix of substrate in assay medium was added to each well. Donor and acceptor signals were measured in a PHERAstar FSX or FS plate reader and analyzed by GraphPad Prism (v.9 or v.10). The acceptor/donor ratio was calculated, the no ligand background signal was subtracted, and multiplied by 1000 to yield mBRET units. Data were then normalized to DMSO.

Chain of NUDT5 and the respective E3 ligase (P40337 whole entry, one chain of several): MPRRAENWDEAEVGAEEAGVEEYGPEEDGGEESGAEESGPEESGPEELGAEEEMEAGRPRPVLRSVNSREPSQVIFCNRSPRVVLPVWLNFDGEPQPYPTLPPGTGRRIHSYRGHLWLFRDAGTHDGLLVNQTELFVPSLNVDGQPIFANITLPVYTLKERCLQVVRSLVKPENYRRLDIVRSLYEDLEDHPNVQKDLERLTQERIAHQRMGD

| Ternary complex formation below 1 µM (4 h) | Structure (SMILES) |
| --- | --- |
| Yes | Cn1c(=O)c2c(nc(N3CCN(C(=O)CCCCCCCCNc4cccc5c4C(=O)N(C4CCC(=O)NC4=O)C5=O)CC3)n2Cc2nnc(-c3ccc(Cl)c(Cl)c3)o2)n(C)c1=O (stereo not shown) [ASM133] |
| Yes | Cn1c(=O)c2c(nc(N3CCN(C(=O)CCOCCNc4cccc5c4C(=O)N(C4CCC(=O)NC4=O)C5=O)CC3)n2Cc2nnc(-c3ccc(Cl)c(Cl)c3)o2)n(C)c1=O (stereo not shown) [ASM137] |
| Yes | Cn1c(=O)c2c(nc(N3CCN(C(=O)CCCCCCCCOc4cccc5c4C(=O)N(C4CCC(=O)NC4=O)C5=O)CC3)n2Cc2nnc(-c3ccc(Cl)c(Cl)c3)o2)n(C)c1=O (stereo not shown) [ASM135] |
| No | Cn1c(=O)c2c(nc(N3CCN(C(=O)CCCCCCOc4cccc5c4C(=O)N(C4CCC(=O)NC4=O)C5=O)CC3)n2Cc2nnc(-c3ccc(Cl)c(Cl)c3)o2)n(C)c1=O (stereo not shown) [ASM136] |
| No | Cc1ncsc1-c1ccc(CNC(=O)C2CC(O)CN2C(=O)C(NC(=O)CCOCCOCCOCCC(=O)N2CCN(c3nc4c(c(=O)n(C)c(=O)n4C)n3Cc3nnc(-c4ccc(Cl)c(Cl)c4)o3)CC2)C(C)(C)C)cc1 (stereo not shown) [ASM131] |
| Yes | Cn1c(=O)c2c(nc(N3CCN(C(=O)CCCCCCCNc4cccc5c4C(=O)N(C4CCC(=O)NC4=O)C5=O)CC3)n2Cc2nnc(-c3ccc(Cl)c(Cl)c3)o2)n(C)c1=O (stereo not shown) [ASM134] |
| Yes | Cn1c(=O)c2c(nc(N3CCN(C(=O)CCCCNc4cccc5c4C(=O)N(C4CCC(=O)NC4=O)C5=O)CC3)n2Cc2nnc(-c3ccc(Cl)c(Cl)c3)o2)n(C)c1=O (stereo not shown) [ASM124] |
| Yes | Cn1c(=O)c2c(nc(N3CCN(C(=O)CCCCCNc4cccc5c4C(=O)N(C4CCC(=O)NC4=O)C5=O)CC3)n2Cc2nnc(-c3ccc(Cl)c(Cl)c3)o2)n(C)c1=O (stereo not shown) [ASM122] |

Same assay, conditions: HEK293, 20 h, Supplementary Table 1

| Ternary complex formation below 1 µM (20 h) | Structure (SMILES) |
| --- | --- |
| No | Cc1ncsc1-c1ccc(CNC(=O)C2CC(O)CN2C(=O)C(NC(=O)COCCOCCCCCCC(=O)N2CCCC(n3nc(-c4ccc(Oc5ccccc5)cc4)c4c(N)ncnc43)C2)C(C)(C)C)cc1 (stereo not shown) [ASM75] |
| No | Nc1ncnc2c1c(-c1ccc(Oc3ccccc3)cc1)nn2C1CCN(CCOCCOCC(=O)Nc2ccc3c(c2)C(=O)N(C2CCC(=O)NC2=O)C3=O)CC1 (stereo not shown) [MT-802, reference compound] |
| No | Cc1ncsc1-c1ccc(CNC(=O)C2CC(O)CN2C(=O)C(NC(=O)CCCCCOCCCCCOCCCCCCN2CCCC(n3nc(-c4ccc(Oc5ccccc5)cc4)c4c(N)ncnc43)C2)C(C)(C)C)cc1 (stereo not shown) [ASM32] |
| No | Cc1ncsc1-c1ccc(CNC(=O)C2CC(O)CN2C(=O)C(NC(=O)CCCCCOCCOCCOCCCCCCN2CCCC(n3nc(-c4ccc(Oc5ccccc5)cc4)c4c(N)ncnc43)C2)C(C)(C)C)cc1 (stereo not shown) [ASM73] |
| No | Nc1ncnc2c1c(-c1ccc(Oc3ccccc3)cc1)nn2[C@@H]1CCCN(C(=O)c2cn(CCOCCOCCOCCNc3cccc4c3C(=O)N(C3CCC(=O)NC3=O)C4=O)nn2)C1 (stereo partly shown) [Compound P13I1, reference compound] |

Same assay, conditions: HEK293, 20 h, Supplementary Table 2

| Ternary complex formation below 1 µM (20 h) | Structure (SMILES) |
| --- | --- |
| Yes | Cn1c(=O)c2c(nc(N3CCN(C(=O)CCCCCCCCNc4cccc5c4C(=O)N(C4CCC(=O)NC4=O)C5=O)CC3)n2Cc2nnc(-c3ccc(Cl)c(Cl)c3)o2)n(C)c1=O (stereo not shown) [ASM133] |
| Yes | Cn1c(=O)c2c(nc(N3CCN(C(=O)CCOCCNc4cccc5c4C(=O)N(C4CCC(=O)NC4=O)C5=O)CC3)n2Cc2nnc(-c3ccc(Cl)c(Cl)c3)o2)n(C)c1=O (stereo not shown) [ASM137] |
| Yes | Cn1c(=O)c2c(nc(N3CCN(C(=O)CCCCCCCCOc4cccc5c4C(=O)N(C4CCC(=O)NC4=O)C5=O)CC3)n2Cc2nnc(-c3ccc(Cl)c(Cl)c3)o2)n(C)c1=O (stereo not shown) [ASM135] |
| No | Cn1c(=O)c2c(nc(N3CCN(C(=O)CCCCCCOc4cccc5c4C(=O)N(C4CCC(=O)NC4=O)C5=O)CC3)n2Cc2nnc(-c3ccc(Cl)c(Cl)c3)o2)n(C)c1=O (stereo not shown) [ASM136] |
| No | Cc1ncsc1-c1ccc(CNC(=O)C2CC(O)CN2C(=O)C(NC(=O)CCOCCOCCOCCC(=O)N2CCN(c3nc4c(c(=O)n(C)c(=O)n4C)n3Cc3nnc(-c4ccc(Cl)c(Cl)c4)o3)CC2)C(C)(C)C)cc1 (stereo not shown) [ASM131] |
| Yes | Cn1c(=O)c2c(nc(N3CCN(C(=O)CCCCCCCNc4cccc5c4C(=O)N(C4CCC(=O)NC4=O)C5=O)CC3)n2Cc2nnc(-c3ccc(Cl)c(Cl)c3)o2)n(C)c1=O (stereo not shown) [ASM134] |
| Yes | Cn1c(=O)c2c(nc(N3CCN(C(=O)CCCCNc4cccc5c4C(=O)N(C4CCC(=O)NC4=O)C5=O)CC3)n2Cc2nnc(-c3ccc(Cl)c(Cl)c3)o2)n(C)c1=O (stereo not shown) [ASM124] |
| Yes | Cn1c(=O)c2c(nc(N3CCN(C(=O)CCCCCNc4cccc5c4C(=O)N(C4CCC(=O)NC4=O)C5=O)CC3)n2Cc2nnc(-c3ccc(Cl)c(Cl)c3)o2)n(C)c1=O (stereo not shown) [ASM122] |

These molecules were tested against NUDT5 (Homo sapiens, UniProt Q96SW2+Q9UKK9) (assay: Western blot NUDT5 degradation in HEK293 cells). Conditions: 20 h, Western blot.
Assay type: cell-based
Description: Pellets were lysed on ice using RIPA buffer (25 mM Tris (pH 7.5), 150 mM NaCl, 1% Igepal, 1% SDS, 0.1% SDC, 1x protease inhibitor (Roche, cOmplete mini, 11836170001), 1x phosphatase (Thermo Scientific, Halt, 78429), 0.1% benzonase (Merck, E1014-5KU)), incubated for 15 min and then centrifuged for 20 min at 4 °C at maximum speed in a table-top centrifuge. […] Membranes were blocked with 6% milk in PBS-T for 1 h at RT, washed, and then incubated with primary antibody diluted in PBS-T supplemented with 0.1% NaN3 overnight at 4 °C. Membranes were incubated with fluorophore-conjugated secondary antibodies, Alexa Fluor 680 anti-rabbit IgG (Life Technologies, A21109), Alexa Fluor 750 anti-mouse IgG (Life Technologies, A21037) diluted 1:5000 in 2% milk PBS-T, washed and imaged with an Odyssey imager (Licor).

| Structure (SMILES) | effect on NUDT5 protein levels |
| --- | --- |
| Cn1c(=O)c2c(nc(N3CCN(C(=O)CCOCCNc4cccc5c4C(=O)N(C4CCC(=O)NC4=O)C5=O)CC3)n2Cc2nnc(-c3ccc(Cl)c(Cl)c3)o2)n(C)c1=O (stereo not shown) [ASM137] | no significant effects on NUDT5 protein levels |
| Cn1c(=O)c2c(nc(N3CCN(C(=O)CCCCCNc4cccc5c4C(=O)N(C4CCC(=O)NC4=O)C5=O)CC3)n2Cc2nnc(-c3ccc(Cl)c(Cl)c3)o2)n(C)c1=O (stereo not shown) [ASM122] | no significant effects on NUDT5 protein levels |

The molecules below were run against NUDT5 (Homo sapiens, UniProt Q9UKK9) (assay: NanoBRET NUDT5 target engagement (TE) assay in HEK293 cells). Conditions: read-out: EC50 (µM), TE 4h; HEK293, 4 h, Supplementary Table 1.
Assay type: cell-based
Parameters: expressed in transfected cells; host or cells: HEK293

| EC50 [µM] | Structure (SMILES) |
| --- | --- |
| > 10 | Cc1ncsc1-c1ccc(CNC(=O)C2CC(O)CN2C(=O)C(NC(=O)COCCOCCCCCCC(=O)N2CCCC(n3nc(-c4ccc(Oc5ccccc5)cc4)c4c(N)ncnc43)C2)C(C)(C)C)cc1 (stereo not shown) [ASM75] |
| 1.3 | Nc1ncnc2c1c(-c1ccc(Oc3ccccc3)cc1)nn2C1CCN(CCOCCOCC(=O)Nc2ccc3c(c2)C(=O)N(C2CCC(=O)NC2=O)C3=O)CC1 (stereo not shown) [MT-802, reference compound] |
| > 10 | Cc1ncsc1-c1ccc(CNC(=O)C2CC(O)CN2C(=O)C(NC(=O)CCCCCOCCCCCOCCCCCCN2CCCC(n3nc(-c4ccc(Oc5ccccc5)cc4)c4c(N)ncnc43)C2)C(C)(C)C)cc1 (stereo not shown) [ASM32] |
| > 10 | Cc1ncsc1-c1ccc(CNC(=O)C2CC(O)CN2C(=O)C(NC(=O)CCCCCOCCOCCOCCCCCCN2CCCC(n3nc(-c4ccc(Oc5ccccc5)cc4)c4c(N)ncnc43)C2)C(C)(C)C)cc1 (stereo not shown) [ASM73] |
| 8.9 | Nc1ncnc2c1c(-c1ccc(Oc3ccccc3)cc1)nn2[C@@H]1CCCN(C(=O)c2cn(CCOCCOCCOCCNc3cccc4c3C(=O)N(C3CCC(=O)NC3=O)C4=O)nn2)C1 (stereo partly shown) [Compound P13I1, reference compound] |
